Here are results for 19 compounds from patent US9187492B2, “Pyripyropene derivative having ACAT2 inhibiting activity and stable to metabolizing enzymes” (School Juridical Person Kitasato Institute, priority 2010, dated 2015).

Read-outs that look alike come from different tables or passages of the source.

The target of one data set is T1, ACAT2 (Mus musculus, UniProt O88908).
T1 construct: The resulting sediment was collected as a microsome fraction; from tissue; host or cells: mouse liver (hepatic microsome membrane fraction)
T1 sequence (O88908 1-525): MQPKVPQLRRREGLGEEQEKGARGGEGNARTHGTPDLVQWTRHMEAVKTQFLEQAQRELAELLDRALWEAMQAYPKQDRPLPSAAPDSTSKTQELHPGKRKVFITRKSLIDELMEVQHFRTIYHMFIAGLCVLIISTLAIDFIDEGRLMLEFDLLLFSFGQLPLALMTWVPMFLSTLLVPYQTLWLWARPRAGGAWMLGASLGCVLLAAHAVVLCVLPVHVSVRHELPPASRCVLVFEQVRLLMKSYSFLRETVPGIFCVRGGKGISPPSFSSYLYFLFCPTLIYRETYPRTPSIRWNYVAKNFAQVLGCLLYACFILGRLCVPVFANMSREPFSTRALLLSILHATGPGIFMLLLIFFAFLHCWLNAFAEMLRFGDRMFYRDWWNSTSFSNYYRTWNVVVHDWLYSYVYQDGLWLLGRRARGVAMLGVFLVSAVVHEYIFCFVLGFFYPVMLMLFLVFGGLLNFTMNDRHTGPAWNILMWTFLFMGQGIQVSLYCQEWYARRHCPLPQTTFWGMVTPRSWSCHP
The experiment in a line: Measurement of ACAT2-inhibiting activity (murine hepatic microsome, [14C]cholesteryl oleate formation). The format is biochemical. As to the method:
The enzyme source which was used was a membrane fraction derived from murine hepatic microsome. Mouse livers were homogenized in buffer solution A (50 mM Tris HCl solution (pH 7.8), 1 mM ethylene diamine tetraacetate, and 1 mM phenylmethanesulfonyl fluoride) using a Potter-type homogenizer (Tokyo-Riko). The homogenate was centrifuged at 12000×g, and the supernatant was subjected to ultracentrifugation at 100000×g. The resulting sediment was collected as a microsome fraction, and this fraction was adjusted so as to have a protein concentration of 5 mg/mL using buffer solution A.
As a control, 10 μL of methanol were used in place of the pyripyropene derivative.
The chloroform layer was evaporated to dryness and was used to spot a thin layer chromatography plate (silica gel plate, Merck, 0.5 mm thickness). Elution for separation was carried out using hexane/diethyl ether/acetic acid (70:30:1, v/v) as an eluant.
wherein the background is the radioactivity of a thin layer chromatography plate which was not spotted.

The nature of data set [1]: Stability against metabolizing enzymes in the liver (hepatic microsome). The note with it: time until remaining amount reached 50%, 37° C.; for half-life at 6 μg/mL: female, Sprague-Dawley (SD), rat, liver microsomes, pH 7.4, Half-life; for Half-life: female SD rat hepatic microsome, 6 μg/mL, pH 7.4. (Microsomes from liver hold many membrane-bound enzymes, among them those of drug oxidation.)

[2] abbreviates: murine hepatic microsome membrane fraction, 5 min at 37° C.; read-out: Inhibitory activity (concentration required for 50% inhibition of ACAT 2 = IC50).
[3] abbreviates: relative to PRD 043; class symbols.

What is called half-life is the time in which the quantity being followed falls by half. The low end stands for rapid decline, the high end for slow decline. With `CC(=O)O[C@H]1CC2C3(C)CO[C@@H](c4ccccc4)O[C@H]3CC[C@]2(C)C2[C@@H](O)c3c(cc(-c4cccnc4)oc3=O)O[C@@]21C` (some centres unmarked) [PRD186, 1,11-O-benzylidene-1,11-dideacetylpyripyropene A], the IC50 on ACAT2 (setting [2]) is 1 to 10 nM. Also, the “Specific activity ((IC50 of the test compound)/(IC50 of PRD 043))” value (from here on “Specific activity”) on ACAT2 (setting [3]) is on record as “+++ (10<specific activity≦20)”. In data set [1], this compound registered a half-life at 6 μg/mL of at least 9 h and a Half-life of over 9 h.

As for `CC12CO[C@@H](c3ccccc3)O[C@H]1CC[C@@]1(C)C2C[C@H](OC(=O)C2CCCCC2)[C@@]2(C)Oc3cc(-c4cccnc4)oc(=O)c3[C@H](O)C12` (some centres unmarked) [PRD080, 1,11-O-benzylidene-7-O-cyclohexanecarbonyl-1,7,11-trideacetylpyripyropene A], the IC50 on ACAT2 (setting [2]) fell in the range of 0.5 to 1 nM. For the same compound, the “Specific activity” value on ACAT2 (setting [3]) is given as “+++ (10<specific activity≦20)”. In addition, the half-life at 6 μg/mL in data set [1] was over 9 h.

On to `CC12CO[C@@H](c3cccc4ccccc34)O[C@H]1CC[C@@]1(C)C2C[C@H](OC(=O)c2ccc(C#N)cc2)[C@@]2(C)Oc3cc(-c4cccnc4)oc(=O)c3[C@H](O)C12` (some centres unmarked) [PRD180, 1,11-O-o-naphthylidene-7-O-p-cyanobenzoyl-1,7,11-trideacetylpyripyropene A], for which the IC50 at ACAT2 (setting [2]) was 1 to 10 nM. For the same compound, the “Specific activity” value at ACAT2 (setting [3]) is recorded as “+++ (10<specific activity≦20)”. In data set [1], this compound showed a half-life at 6 μg/mL of at least 9 h and a Half-life of over 9 h.

With `COc1ccc(CNC(=O)C2(C)C3C[C@H](OC(=O)c4ccc(C#N)cc4)[C@@]4(C)Oc5cc(-c6cccnc6)oc(=O)c5[C@H](O)C4[C@@]3(C)CC[C@@H]2OC(C)=O)c(OC)c1` (some centres unmarked) [PRD071, 7-O-p-cyanobenzoyl-11-deacetoxymethyl-7-deacetyl-11-(2,4-dimethoxybenzylamino)carbonylpyripyropene A], the IC50 at ACAT2 (setting [2]) was under 0.5 nM. For the same compound, on ACAT2 (setting [3]), the “Specific activity” value is on record as “++++ (20<specific activity)”. In data set [1], this compound came in with a half-life at 6 μg/mL of at least 9 h and a Half-life of over 9 h.

In the case of `COC(=O)C1(C)C2C[C@H](OC(=O)c3ccc(C#N)cc3)[C@@]3(C)Oc4cc(-c5cccnc5)oc(=O)c4[C@H](O)C3[C@@]2(C)CC[C@@H]1OC(C)=O` (some centres unmarked) [PRD070, 7-O-p-cyanobenzoyl-11-deacetoxymethyl-7-deacetyl-11-methoxy-carbonylpyripyropene A], the IC50 at ACAT2 (setting [2]) fell in the range of 0.5 to 1 nM. Besides, the “Specific activity” value on ACAT2 (setting [3]) was “+++ (10<specific activity≦20)”. In data set [1], the half-life at 6 μg/mL is over 9 h.

Take `COc1ccccc1[C@@H]1OCC2(C)C3C[C@H](OC(=O)c4ccc(C#N)cc4)[C@@]4(C)Oc5cc(-c6cccnc6)oc(=O)c5[C@H](O)C4[C@@]3(C)CC[C@@H]2O1` (some centres unmarked) [PRD161, 1,11-O-o-methoxybenzylidene-7-O-p-cyanobenzoyl-1,7,11-trideacetylpyripyropene A]: the IC50 on ACAT2 (setting [2]) lay in the range of 0.5 to 1 nM. The “Specific activity” value at ACAT2 (setting [3]) is listed as “+++ (10<specific activity≦20)”. In data set [1], the half-life at 6 μg/mL was at least 9 h and the Half-life is given as over 9 h.

As for `Cc1ccc([C@@H]2OCC3(C)C4C[C@H](OC(=O)c5ccc(C#N)cc5)[C@@]5(C)Oc6cc(-c7cccnc7)oc(=O)c6[C@H](O)C5[C@@]4(C)CC[C@@H]3O2)c(C)c1` (some centres unmarked) [PRD159, 1,11-O-o,p-dimethylbenzylidene-7-O-p-cyanobenzoyl-1,7,11-trideacetylpyripyropene A], at ACAT2 (setting [2]), the IC50 was 0.5 to 1 nM. Also, at ACAT2 (setting [3]), the “Specific activity” value is “+++ (10<specific activity≦20)”. Moreover, in data set [1], the half-life at 6 μg/mL is at least 9 h and the Half-life was over 9 h.

Turning to `Cc1ccc([C@@H]2OCC3(C)C4C[C@H](OC(=O)c5ccc(F)cc5)[C@@]5(C)Oc6cc(-c7cccnc7)oc(=O)c6[C@H](O)C5[C@@]4(C)CC[C@@H]3O2)c(C)c1` (some centres unmarked) [PRD160, 1,11-O-o,p-dimethylbenzylidene-7-O-p-fluorobenzoyl-1,7,11-trideacetylpyripyropene A], at ACAT2 (setting [2]), the IC50 is 0.5 to 1 nM. The “Specific activity” value at ACAT2 (setting [3]) is given as “+++ (10<specific activity≦20)”. In data set [1], this compound gave a half-life at 6 μg/mL of at least 9 h and a Half-life of over 9 h.

On to `Cc1ccc([C@@H]2OCC3(C)C4C[C@H](OC(=O)c5ccc(C#N)cc5)[C@@]5(C)Oc6cc(-c7cccnc7)oc(=O)c6[C@H](O)C5[C@@]4(C)CC[C@@H]3O2)cc1` (some centres unmarked) [PRD126, 1,11-O-p-methylbenzylidene-7-O-p-cyanobenzoyl-1,7,11-trideacetylpyripyropene A], for which the IC50 at ACAT2 (setting [2]) was in the range of 0.5 to 1 nM. In addition, on ACAT2 (setting [3]), the “Specific activity” value was “+++ (10<specific activity≦20)”. Also, in data set [1], the half-life at 6 μg/mL was at least 9 h and the Half-life is listed as over 9 h.

`CC(C)C(=O)OCC1(C)C2C[C@H](OC(=O)c3ccc(C#N)cc3)[C@@]3(C)Oc4cc(-c5cccnc5)oc(=O)c4[C@H](O)C3[C@@]2(C)CC[C@@H]1OC(=O)C(C)C` (some centres unmarked) [PRD056, reference compound]: on ACAT2 (read-out: Inhibitory activity (concentration required for 50% inhibition of ACAT 2 = IC50); murine hepatic microsome membrane fraction, 5 min at 37° C.), the IC50 is over 10 nM. Further, on ACAT2 (setting [3]), the “Specific activity” value is listed as “− (0.1≦specific activity<1)”. In data set [1], this compound had a half-life at 6 μg/mL of at least 9 h and a Half-life of over 9 h.

On to `CC(C)C(=O)OCC1(C)C2C[C@H](OC(=O)C3CCCCC3)[C@@]3(C)Oc4cc(-c5cccnc5)oc(=O)c4[C@H](O)C3[C@@]2(C)CC[C@@H]1OC(=O)C(C)C` (some centres unmarked) [PRD074, 7-O-cyclohexanecarbonyl-1,11-O-diisobutyryl-1,7,11-trideacetylpyripyropene A], for which the IC50 at ACAT2 (setting [2]) is 0.5 to 1 nM. Besides, the “Specific activity” value on ACAT2 (setting [3]) is listed as “+++ (10<specific activity≦20)”. Also, in data set [1], the half-life at 6 μg/mL was at least 9 h and the Half-life was over 9 h.

On to `Cc1cccc(C)c1[C@@H]1OCC2(C)C3C[C@H](OC(=O)c4ccc(C#N)cc4)[C@@]4(C)Oc5cc(-c6cccnc6)oc(=O)c5[C@H](O)C4[C@@]3(C)CC[C@@H]2O1` (some centres unmarked) [PRD181, 1,11-O-o,o-dimethylbenzylidene-7-O-p-cyanobenzoyl-1,7,11-trideacetylpyripyropene A], for which, at ACAT2 (setting [2]), the IC50 is 0.5 to 1 nM. In addition, on ACAT2 (setting [3]), the “Specific activity” value is “+++ (10<specific activity≦20)”. For the same compound, in data set [1], the half-life at 6 μg/mL was at least 9 h and the Half-life is given as over 9 h.

For the compound `CC12CO[C@@H](c3ccccc3)O[C@H]1CC[C@@]1(C)C2C[C@H](OC(=O)c2ccccc2)[C@@]2(C)Oc3cc(-c4cccnc4)oc(=O)c3[C@H](O)C12` (some centres unmarked) [PRD122, 1,11-O-benzylidene-7-O-benzoyl-1,7,11-trideacetylpyripyropene A], the IC50 on ACAT2 (setting [2]) fell in the range of 0.5 to 1 nM. Besides, the “Specific activity” value at ACAT2 (setting [3]) is given as “+++ (10<specific activity≦20)”. In data set [1], this compound gave a half-life at 6 μg/mL of at least 9 h and a Half-life of over 9 h.

In data set [1], `CC(=O)OCC1(C)C2C[C@H](OC(=O)c3cccc(Br)c3)[C@@]3(C)Oc4cc(-c5cccnc5)oc(=O)c4[C@H](O)C3[C@@]2(C)CC[C@@H]1OC(C)=O` (some centres unmarked) [PRD025, reference compound] had a half-life at 6 μg/mL of 1 h and a Half-life of under 1 h.

For `CC(=O)OCC1(C)C2C[C@H](OC(=O)c3ccc(C)cc3)[C@@]3(C)Oc4cc(-c5cccnc5)oc(=O)c4[C@H](O)C3[C@@]2(C)CC[C@@H]1OC(C)=O` (some centres unmarked) [PRD009, reference compound], in data set [1], the half-life at 6 μg/mL is 1 h and the Half-life is on record as under 1 h.

Consider `CC(=O)OCC1(C)C2C[C@H](OC(=O)c3ccccc3F)[C@@]3(C)Oc4cc(-c5cccnc5)oc(=O)c4[C@H](O)C3[C@@]2(C)CC[C@@H]1OC(C)=O` (some centres unmarked) [PRD026, reference compound], for which, in data set [1], the half-life at 6 μg/mL is 1 h and the Half-life is listed as under 1 h.

In data set [1], `CC(=O)OCC1(C)C2C[C@H](OC(=O)c3ccccc3C)[C@@]3(C)Oc4cc(-c5cccnc5)oc(=O)c4[C@H](O)C3[C@@]2(C)CC[C@@H]1OC(C)=O` (some centres unmarked) [PRD007, reference compound] had a half-life at 6 μg/mL of 1 h and a Half-life of under 1 h.

Take `CC(=O)OCC1(C)C2C[C@H](OC(=O)C3CCCCC3)[C@@]3(C)Oc4cc(-c5cccnc5)oc(=O)c4[C@H](O)C3[C@@]2(C)CC[C@@H]1OC(C)=O` (some centres unmarked) [PRD021, reference compound]: in data set [1], the half-life at 6 μg/mL is 1 h and the Half-life was under 1 h.

`CCc1ccc(C(=O)O[C@H]2CC3C(C)(COC(C)=O)[C@@H](OC(C)=O)CC[C@]3(C)C3[C@@H](O)c4c(cc(-c5cccnc5)oc4=O)O[C@@]32C)cc1` (some centres unmarked) [PRD024, reference compound]: in data set [1], the half-life at 6 μg/mL is 1 h and the Half-life was under 1 h.
